In patent US20250154467A1, “CREATION OF VASCULARIZED BIOLOGICAL STRUCTURES” (The Board of Trustees of the Leland Stanford Junior …, priority 2022, published 2025):
“Also recorded” adds a separate entry of the source. Where two headings read alike, the source gives them in different places.

Columns and labels:
[1] = test system: hESC-3R micropatterns; experiment: cVO differentiation screening, 34 conditions, CM/EC/SMC total fluorescence area; format: cell-based, human
Excerpt: Cardiac Vascularized Organoid (cVO) Differentiation. See FIG. 3C, FIG. 10H-I, and Table 1 for an overview of our thirty-four (34) cardiovascular (CV) differentiation screening conditions to produce cVOs. The Control groups utilized only CHIR, FGF2, and IWR. To begin, hPSCs suspended in single cells were transferred to Matrigel-coated non-micropatterned or micropatterned surfaces as described above and differentiated in RPMI-1640 media (61870, Thermo Fisher Scientific) supplemented with B27 without insulin (A1895601, Thermo Fisher Scientific) (RB-I). The CV differentiation was based on the baseline differentiation described previously to promote CM differentiation and contained several additional small molecules and growth factors to promote simultaneous endothelial and smooth muscle cell co-differentiation. On Day 0, for primarily mesoderm induction, basal medium was supplemented with 4 or 5 μM CHIR99021 (CHIR) (S2924, Selleck Chemicals) and 5 ng/ml FGF-2 (FGF2) (100-18B, PeproTech). On Day 3, for CM induction, 5 uM IWR-1 (IWR) (S7086, Selleck Chemicals) was added. On Days 5-16, to simultaneously induce endothelial cell vasculogenesis and angiogenesis along with the cardiomyocyte differentiation, we added combinations of 50 ng/ml VEGF-165 (VEGF) (Days 5, 7, 9, 11, 13) (100-20, PeproTech); 5 ng/ml FGF-2 (FGF2) (Days 7, 9, 11, 13) (100-18B, PeproTech); 10 uM SB431542 (SB) (Days 7, 9, or 11) ([…], Selleck Chemicals); 50 ng/ml Angiopoietin-2 (ANG2) (Days 5 and 7) (130-07, PeproTech); 50 ng/ml Angiopoietin-1 (ANG1) (Days 9 and 11) (130-06, PeproTech); and select components of the VascuLife® VEGF LifeFactors® Kit (Aghajanian et al., 2016) (LS-1020, Lifeline Cell Technology) (Days 5, 7, 9, 11, and 13) (5 ng/ml EGF, 15 ng/ml IGF-1, 50 μg/mL ascorbic acid, 0.75 U/mL heparin sulfate, […]). On Days 7-16, to simultaneously induce smooth muscle cell differentiation with cardiomyocyte and endothelial cell differentiation, we added 2.5 or 10 ng/ml PDGF-BB (PDGFBB) (Days 7, 9, 11, 13) (100-14B, PeproTech) and 0.5 or 2 ng/ml TGF-β1 (TGFβ) (Days 7, 9, 11, 13) (100-21C, PeproTech). To increase throughput, screening time-lapse microscopy was performed with the Cytation 5 Cell Imaging Multi-Mode Reader (BioTek). Five (5) forty-eight (48)-well plates (204 out of 240 wells) were imaged over the differentiation time-period. The plates contained a single 2 mm circular micropattern of undifferentiated hESC-3R cells in the center of each well subjected to thirty-four (34) differentiation conditions, with nominally 4-6 replicates per condition, imaged at six (6) timepoints (Days 3, 5, 8, 10, 12, and 16 (D3-D16)). After all raw images were acquired, image analysis was performed with Gen5 v3.05 software (BioTek). Images in each channel and each 4×4 array were stitched to create a single mosaic image; 4728 mosaics were created, and each mosaic image was downsized by 25%. Next, image processing of each mosaic was performed to reduce background independently in each channel. Finally, for each channel, thresholding was performed on fluorescence intensity along with minimum and maximum object size to calculate the total Phase, CFP, GFP, and mOrange total fluorescence area in each well for each condition at each timepoint. Each mosaic image was computationally masked by a circular “plug” to eliminate fluorescence artifact created by well edges. For each condition, values for replicate samples were summed, and the mean and standard deviation were calculated.

[2] = test system: RUES-GLR hESCs; experiment: Germ layer formation under different CHIR concentrations; format: cell-based, human; conditions: CHIR 4 uM added at day 0, day 6
[3] = test system: hESC-3R micropatterns; experiment: CHIR concentrations and VEGF addition on CM and EC co-differentiation over 14 days; format: cell-based, human; conditions: day 14
[4] = test system: hESC-3R colony; experiment: 3D cVO creation in 96-well plate with a range of CHIR; format: cell-based, human; conditions: 3D cVOs, day 14, CHIR 6.0-8.5 uM
Description: For 3D cVO creation, two methods were used. In the first method, stencils with single 2 mm center holes were placed in 24-well plates with Softwell Easy Coat hydrogels with a custom stiffness of 16 […]) and hESC-3R cells were micropatterned as described above. In the second method, to increase throughput and eliminate using stencils, each well of a black 96-well plate ([…]-32EA, Sigma-Aldrich) was freshly coated with a central, 2 uL drop of Matrigel (1:400 dilution) and was then seeded with 125,000 hESC-3R cells. Cells were allowed to attach and grow for 2-4 days forming a single, homogenous, round colony in the center of each well. The same differentiation protocol for 2D cVOs was then used to create 3D cVOs from days 0-14, using a range of CHIR from 6.0-8.5 μM.

[5] = test system: cVO EC formation; conditions: for time course of detrimental effect on EC formation (regression coefficients): multiple linear regression fit, 16 days; for effect on vascularization of cVOs: pathway inhibitors, summary; for EC location within cVO: day 16
[6] = test system: Controls (baseline cardiomyocyte differentiation); experiment: Beat rate with isoproterenol treatment, Controls; format: cell-based, human; conditions: isoproterenol 0, 1, and 10 uM; n=15
Excerpt: Baseline Cardiomyocyte (CM) Differentiation. For baseline cardiomyocyte (CM) differentiation (Control group), hPSCs were transferred to Matrigel-coated non-micropatterned and micropatterned surfaces as described above and differentiated in RPMI-1640 media (61870, Thermo Fisher Scientific) supplemented with B27 without insulin (A1895601, Gibco/Thermo Fisher Scientific). Our baseline differentiation method was based on a small molecule-based monolayer method (Lian et al., 2012; Burridge et al., 2014). Briefly, on the first day (Day 0) of differentiation, basal medium was supplemented with 4, 5, or 6 μM CHIR99021 (CHIR) (S2924, Selleck Chemicals) and 5 ng/mL FGF-2 (FGF2) (100-18B, PeproTech). On Day 2, the medium was replaced with basal medium containing B27 without insulin. […] We assessed the contractility of Control and cVO groups in a similar manner as we have previously described. Contraction of beating CMs within the micropatterns was recorded with high-resolution motion capture tracking (75 fps) using the SI8000 Live Cell Motion Imaging System (Sony Corporation). […] Functional parameters were assessed from the averaged contraction-relaxation waveforms from 10 sec recordings, using the S[…] […] The software was used to detect motion vectors and quantify beating rate, contraction velocity, relaxation velocity, and contraction-relaxation peak interval of cVOs.

[7] = test system: cVOs; experiment: Beat rate with isoproterenol treatment, cVOs; format: cell-based, human; conditions: isoproterenol 0, 1, and 10 uM; n=16
Excerpt: Cardiac Vascularized Organoid (cVO) Differentiation. See FIG. 3C, FIG. 10H-I, and Table 1 for an overview of our thirty-four (34) cardiovascular (CV) differentiation screening conditions to produce cVOs. The Control groups utilized only CHIR, FGF2, and IWR. To begin, hPSCs suspended in single cells were transferred to Matrigel-coated non-micropatterned or micropatterned surfaces as described above and differentiated in RPMI-1640 media (61870, Thermo Fisher Scientific) supplemented with B27 without insulin (A1895601, Thermo Fisher Scientific) (RB-I). The CV differentiation was based on the baseline differentiation described previously to promote CM differentiation and contained several additional small molecules and growth factors to promote simultaneous endothelial and smooth muscle cell co-differentiation. […] We assessed the contractility of Control and cVO groups in a similar manner as we have previously described. Contraction of beating CMs within the micropatterns was recorded with high-resolution motion capture tracking (75 fps) using the SI8000 Live Cell Motion Imaging System (Sony Corporation). […] Functional parameters were assessed from the averaged contraction-relaxation waveforms from 10 sec recordings, using the S[…] […] The software was used to detect motion vectors and quantify beating rate, contraction velocity, relaxation velocity, and contraction-relaxation peak interval of cVOs.

[8] = CHIR 4 vs 5 uM for each condition, day 12

Cc1cnc(-c2cnc(NCCNc3ccc(C#N)cn3)nc2-c2ccc(Cl)cc2Cl)[nH]1 [CHIR, 6-[[2-[[4-(2,4-Dichlorophenyl)-5-(5-methyl-1H-imidazol-2-yl)-2-pyrimidinyl]amino]ethyl]amino]-3-pyridinecarbonitrile]
CHIR concentration giving the most CMs, ECs, and SMCs ([1]; 34 screening conditions, CHIR 4 uM vs 5 uM): 5 µM
CHIR concentration giving the most CMs (GFP total fluorescence area) [1, 8]: 5 µM
CHIR concentration giving the most ECs (mOr total fluorescence area) [1, 8]: 5 µM
CHIR concentration giving the most SMCs (CFP total fluorescence area) [1, 8]: 5 µM
germ layer formation in micropatterned RUES-GLR hESCs [2]: central BRA+ mesodermal area was surrounded by a SOX17+ endodermal ring and no SOX2 ectodermal expression; also recorded: BRA+ mesodermal central area surrounded by a SOX17+ endodermal ring, with no SOX2 ectodermal expression
CHIR concentration giving the most CMs ([3]; CHIR+FGF2+IWR (Control), CHIR 3, 4, and 5 uM): 5 µM
CHIR concentration giving the most CMs and ECs ([3]; CHIR+FGF2+IWR+VEGF 50 ng/ml): 5 µM
CHIR concentration giving the most CMs and ECs [4]: 7.0 µM

C[C@H](NC(=O)Cc1cc(F)cc(F)c1)C(=O)N[C@H](C(=O)OC(C)(C)C)c1ccccc1 [DAPT]
difference in cVO EC formation between concentrations ([5]; DAPT 1 vs 10 uM): no significant (ns) difference
time course of detrimental effect on EC formation (regression coefficients) [5]: decays over time
effect on vascularization of cVOs [5]: general disruptive effects on vascularization

Cl.Cl.c1cc(-c2cnn3cc(-c4ccc(OCCN5CCCCC5)cc4)cnc23)ccn1 [Dorsomorphin, 6-[4-[2-(1-Piperidinyl)ethoxy]phenyl]-3-(4-pyridinyl)-pyrazolo[1,5-a]pyrimidine dihydrochloride]
difference in cVO EC formation between concentrations ([5]; Dorsomorphin 0.1 vs 1.0 uM): no significant (ns) difference
time course of detrimental effect on EC formation (regression coefficients) [5]: exponentially increases
effect on vascularization of cVOs [5]: general disruptive effects on vascularization

CC(C)NCC(O)c1ccc(O)c(O)c1 (stereo not shown) [isoproterenol]
Beat rate of Controls [6]: significantly increased; also recorded: increases
Beat rate of cVOs [7]: significantly increased; also recorded: increases

Angiostatin
EC location within cVO ([5]; Angiostatin 0.1 ug/mL): ECs congregated in the center area of starting micropatterns
EC location within cVO ([5]; Angiostatin 1.0 ug/mL): ECs congregated at the periphery of starting micropatterns
difference in cVO EC formation between concentrations ([5]; Angiostatin 0.1 vs 1.0 ug/mL): no significant (ns) difference
effect on vascularization of cVOs [5]: general disruptive effects on vascularization

VEGF
EC formation (mOr) compared to Control, FGF2 alone and SB alone ([1]; VEGF alone, 50 ng/ml, day 12): most ECs
effect on CM formation (GFP) ([1]; VEGF alone, 50 ng/ml, day 12): no statistical (ns) effect
